Our source for the inhibition values is patent publication US8178535B2, “Substituted sulfonamide compounds having bradykinin 1 receptor activity and use thereof as medicaments” (Gruenenthal GmbH, priority 2008, dated 2012).

As usually defined, the inhibition is the drop in the measured response relative to a control, in per cent.

The target in test [1] is T1, human B1R receptor (hB1R) (Homo sapiens, UniProt P46663).
T1 construct: host or cells: CHO K1 cells
T1 sequence (P46663 1-353): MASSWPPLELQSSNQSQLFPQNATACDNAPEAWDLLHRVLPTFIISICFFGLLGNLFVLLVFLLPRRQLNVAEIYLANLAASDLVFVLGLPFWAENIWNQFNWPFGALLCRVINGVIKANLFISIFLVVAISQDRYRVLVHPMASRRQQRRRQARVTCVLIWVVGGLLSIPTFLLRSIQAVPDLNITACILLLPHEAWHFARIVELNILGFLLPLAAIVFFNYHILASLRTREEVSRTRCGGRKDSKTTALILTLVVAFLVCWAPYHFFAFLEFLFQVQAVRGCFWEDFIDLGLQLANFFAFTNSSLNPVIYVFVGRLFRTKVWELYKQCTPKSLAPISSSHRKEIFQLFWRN
The test can be described thus: FLIPR Ca2+ assay (Fluo-4) on CHO K1 cells stably transfected with the human B1R gene. Type of test: cell-based. To be noted: CHO-K1; test substance 10 μM; agonist Lys-Des-Arg9-bradykinin 0.5 nM; % inhibition compared to the maximum achievable inhibition. A digest of the protocol:
(§1)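 CHO K1 cells stably expressing human or rat B1R, Fluo-4 loaded, read by FLIPR (Ex 488/Em 540, peak fluorescence). Compound at 10 μM gives % activation vs agonist. After 10 min, agonist added (human: Lys-Des-Arg9-bradykinin 0.5 nM; rat: Des-Arg9-bradykinin 100 nM); % inhibition relative to maximal achievable inhibition.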

For test [2], the target named is T2, B1R receptor of rats (rB1R) (Rattus norvegicus, UniProt P97583).
T2 construct: host or cells: CHO K1 cells
T2 sequence (P97583 1-337): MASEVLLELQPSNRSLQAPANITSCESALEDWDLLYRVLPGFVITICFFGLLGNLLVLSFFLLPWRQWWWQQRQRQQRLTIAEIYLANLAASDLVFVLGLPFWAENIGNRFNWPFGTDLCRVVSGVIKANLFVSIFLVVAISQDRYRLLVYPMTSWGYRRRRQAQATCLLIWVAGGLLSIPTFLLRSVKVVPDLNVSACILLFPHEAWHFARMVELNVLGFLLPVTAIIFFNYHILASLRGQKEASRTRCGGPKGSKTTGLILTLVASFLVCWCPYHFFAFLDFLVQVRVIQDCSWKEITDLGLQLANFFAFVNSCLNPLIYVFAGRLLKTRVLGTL
Nature of the test: FLIPR Ca2+ assay (Fluo-4) on CHO K1 cells stably transfected with the B1R gene of rats. The class given is cell-based. To be noted: CHO-K1; test substance 10 μM; agonist Des-Arg9-bradykinin 100 nM; % inhibition compared to the maximum achievable inhibition. A digest of the protocol: as §1

Take `COc1cc(C)c(S(=O)(=O)N2CCCCC2COCC(=O)N2CCn3c(CN(C)C)ccc3C2CCc2ccccc2)c(C)c1` (stereo not drawn) [(66), 1-(6-((dimethylamino)methyl)-1-phenethyl-3,4-dihydropyrrolo[1,2-a]pyrazin-2(1H)-yl)-2-((1-(4-methoxy-2,6-dimethylphenylsulfonyl)piperidin-2-yl)methoxy)ethanone]: the inhibition at 10 µM is 102% in test [1] and 101% in test [2].
The matching figures for `CCCCC1c2ccc(CN(C)C)n2CCN1C(=O)COCC1CCCCN1S(=O)(=O)c1c(C)cc(OC)cc1C` (stereo not drawn) [(67), 1-(1-butyl-6-((dimethylamino)methyl)-3,4-dihydropyrrolo[1,2-a]pyrazin-2(1H)-yl)-2-((1-(4-methoxy-2,6-dimethylphenylsulfonyl)piperidin-2-yl)methoxy)ethanone]: 102% and 100%.
The matching figures for `COc1cc(C)c(S(=O)(=O)N2CCCCC2COCC(=O)N2CCn3c(CN(C)C)ccc3C2c2cccs2)c(C)c1` (stereo not drawn) [(68), 1-(6-((dimethylamino)methyl)-1-(thiophen-2-yl)-3,4-dihydropyrrolo[1,2-a]pyrazin-2(1H)-yl)-2-((1-(4-methoxy-2,6-dimethylphenylsulfonyl)piperidin-2-yl)methoxy)ethanone]: 102% and 103%.
The matching figures for `CCC1c2ccc(CN(C)C)n2CCN1C(=O)COCC1CCCCN1S(=O)(=O)c1c(C)cc(OC)cc1C` (stereo not drawn) [(69), 1-(6-((dimethylamino)methyl)-1-ethyl-3,4-dihydropyrrolo[1,2-a]pyrazin-2(1H)-yl)-2-((1-(4-methoxy-2,6-dimethylphenylsulfonyl)piperidin-2-yl)methoxy)ethanone]: 104% and 102%.
Consider `CCC1c2cccn2CCN1C(=O)COCC1CCCCN1S(=O)(=O)c1c(C)cc(OC)cc1C` (stereo not drawn) [(70), 1-(1-ethyl-3,4-dihydropyrrolo[1,2-a]pyrazin-2(1H)-yl)-2-((1-(4-methoxy-2,6-dimethylphenylsulfonyl)piperidin-2-yl)methoxy)ethanone], for which the results for the inhibition at 10 µM in test [1] and in test [2] were 102% and 103%, respectively.
The matching figures for `CCCC1c2cccn2CCN1C(=O)COCC1CCCCN1S(=O)(=O)c1c(C)cc(OC)cc1C` (stereo not drawn) [(71), 2-((1-(4-methoxy-2,6-dimethylphenylsulfonyl)piperidin-2-yl)methoxy)-1-(1-propyl-3,4-dihydropyrrolo[1,2-a]pyrazin-2(1H)-yl)ethanone]: 103% and 102%.
The matching figures for `COc1cc(C)c(S(=O)(=O)N2CCCCC2COCC(=O)N2CCn3cccc3C2C(C)C)c(C)c1` (stereo not drawn) [(72), 1-(1-isopropyl-3,4-dihydropyrrolo[1,2-a]pyrazin-2(1H)-yl)-2-((1-(4-methoxy-2,6-dimethylphenylsulfonyl)piperidin-2-yl)methoxy)ethanone]: 102% and 102%.
On to `COc1cc(C)c(S(=O)(=O)N2CCCCC2COCC(=O)N2CCn3ncnc3C2)c(C)c1` (stereo not drawn) [(73), 1-(5,6-dihydro-[1,2,4]triazolo[1,5-a]pyrazin-7(8H)-yl)-2-((1-(4-methoxy-2,6-dimethylphenylsulfonyl)piperidin-2-yl)methoxy)ethanone], for which the inhibition at 10 µM in test [1] is 36%; in test [2], 102%.
The matching figures for `CCC1c2cccn2CCN1C(=O)CCC1CCCCN1S(=O)(=O)c1c(C)cc(OC)cc1C` (stereo not drawn) [(85), 1-(1-ethyl-3,4-dihydropyrrolo[1,2-a]pyrazin-2(1H)-yl)-3-(1-(4-methoxy-2,6-dimethylphenylsulfonyl)piperidin-2-yl)propan-1-one]: 95% and 98%.
The matching figures for `CCC1c2cccn2CCN1C(=O)COC[C@@H]1CCCCN1S(=O)(=O)c1c(C)cc(OC)cc1C` (stereo partly drawn) [(86), 1-(1-ethyl-3,4-dihydropyrrolo[1,2-a]pyrazin-2(1H)-yl)-2-(((S)-1-(4-methoxy-2,6-dimethylphenylsulfonyl)piperidin-2-yl)methoxy)ethanone]: 99% and 99%.
On to `COc1cc(C)c(S(=O)(=O)N2CCCCC2COCC(=O)N2CCn3c(Cc4ccncc4)ccc3C2)c(C)c1` (stereo not drawn) [(88), 2-((1-(4-Methoxy-2,6-dimethylphenylsulfonyl)piperidin-2-yl)methoxy)-1-(6-(pyridin-4-ylmethyl)-3,4-dihydropyrrolo[1,2-a]pyrazin-2(1H)-yl)ethanone], for which the inhibition at 10 µM in test [1] is 99%; in test [2], 100%.
In the case of `COc1cc(C)c(S(=O)(=O)N2CCCCC2COCC(=O)N2CCn3c(ccc3-c3cccnc3)C2)c(C)c1` (stereo not drawn) [(89), 2-((1-(4-Methoxy-2,6-dimethylphenylsulfonyl)piperidin-2-yl)methoxy)-1-(6-(pyridin-3-yl)-3,4-dihydropyrrolo[1,2-a]pyrazin-2(1H)-yl)ethanone], the values for the inhibition at 10 µM in test [1] and in test [2] were 99% and 96%, respectively.
With `O=C(CC1CCCCN1S(=O)(=O)c1cccc(C(F)(F)F)c1)N1CCn2c(Cc3ccncc3)ccc2C1` (stereo not drawn) [(90), 1-(6-(Pyridin-4-ylmethyl)-3,4-dihydropyrrolo[1,2-a]pyrazin-2(1H)-yl)-2-(1-(3-(trifluoromethyl)phenylsulfonyl)piperidin-2-yl)ethanone], the inhibition at 10 µM came out at 25% in test [1] and 47% in test [2].
The matching figures for `COc1cc(C)c(S(=O)(=O)N2CCCCC2CCCC(=O)N2CCn3c(Cc4ccncc4)ccc3C2)c(C)c1` (stereo not drawn) [(91), 4-(1-(4-Methoxy-2,6-dimethylphenylsulfonyl)piperidin-2-yl)-1-(6-(pyridin-4-ylmethyl)-3,4-dihydropyrrolo[1,2-a]pyrazin-2(1H)-yl)butan-1-one]: 95% and 100%.
The matching figures for `COc1cc(C)c(S(=O)(=O)N2CCCCC2CCCC(=O)N2CCn3c(ccc3-c3cccnc3)C2)c(C)c1` (stereo not drawn) [(92), 4-(1-(4-Methoxy-2,6-dimethylphenylsulfonyl)piperidin-2-yl)-1-(6-(pyridin-3-yl)-3,4-dihydropyrrolo[1,2-a]pyrazin-2(1H)-yl)butan-1-one]: 91% and 99%.
The matching figures for `O=C(CC1CCCCN1S(=O)(=O)c1cccc(C(F)(F)F)c1)N1CCn2c(ccc2-c2cccnc2)C1` (stereo not drawn) [(93), 1-(6-(Pyridin-3-yl)-3,4-dihydropyrrolo[1,2-a]pyrazin-2(1H)-yl)-2-(1-(3-(trifluoromethyl)phenylsulfonyl)piperidin-2-yl)ethanone]: 18% and 55%.
Turning to `COc1cc(C)c(S(=O)(=O)N2CCCCC2CCC(=O)N2CCn3c(ccc3-c3cccnc3)C2)c(C)c1` (stereo not drawn) [(94), 3-(1-(4-Methoxy-2,6-dimethylphenylsulfonyl)piperidin-2-yl)-1-(6-(pyridin-3-yl)-3,4-dihydropyrrolo[1,2-a]pyrazin-2(1H)-yl)propan-1-one], the values for the inhibition at 10 µM in test [1] and in test [2] were 45% and 99%, respectively.
As for `COc1cc(C)c(S(=O)(=O)N2CCCCC2COCC(=O)N2CCn3c(ccc3-c3ccncc3)C2)c(C)c1` (stereo not drawn) [(95), 2-((1-(4-Methoxy-2,6-dimethylphenylsulfonyl)piperidin-2-yl)methoxy)-1-(6-(pyridin-4-yl)-3,4-dihydropyrrolo[1,2-a]pyrazin-2(1H)-yl)ethanone], the inhibition at 10 µM came to 99% in test [1] and 97% in test [2].
As to `COc1cc(C)c(S(=O)(=O)N2CCCCC2CCC(=O)N2CCn3c(ccc3-c3ccncc3)C2)c(C)c1` (stereo not drawn) [(96), 3-(1-(4-Methoxy-2,6-dimethylphenylsulfonyl)piperidin-2-yl)-1-(6-(pyridin-4-yl)-3,4-dihydropyrrolo[1,2-a]pyrazin-2(1H)-yl)propan-1-one], the inhibition at 10 µM stood at 61% in test [1] and 96% in test [2].
For `O=C(CC1CCCCN1S(=O)(=O)c1cccc(C(F)(F)F)c1)N1CCn2c(Cc3cccnc3)ccc2C1` (stereo not drawn) [(97), 1-(6-(Pyridin-3-ylmethyl)-3,4-dihydropyrrolo[1,2-a]pyrazin-2(1H)-yl)-2-(1-(3-(trifluoromethyl)phenylsulfonyl)piperidin-2-yl)ethanone], the inhibition at 10 µM in test [1] is 80%; in test [2] it was 103%.
On to `O=C(CC1CCCCN1S(=O)(=O)c1cccc(C(F)(F)F)c1)N1CCn2c(CCc3cccnc3)ccc2C1` (stereo not drawn) [(98), 1-(6-(2-(Pyridin-3-yl)ethyl)-3,4-dihydropyrrolo[1,2-a]pyrazin-2(1H)-yl)-2-(1-(3-(trifluoromethyl)phenylsulfonyl)piperidin-2-yl)ethanone], for which the inhibition at 10 µM in test [1] and in test [2] was 90% each time.
